According to US20240182487A1, “MACROCYCLES AND THEIR USE” (BLOSSOMHILL THERAPEUTICS, INC., priority 2020, published 2024):

What was measured:
Assay type in all cases: biochemical
EGFR L858R mutant = EGFR L858R mutant (Homo sapiens (Human), UniProt P00533, L858R); experiment: HotSpot radiometric kinase assay, EGFR L858R; settings: radiometric filter-binding, 10 μM ATP
EGFR L858R/C797S mutant = EGFR L858R/C797S mutant (Homo sapiens (Human), UniProt P00533, C797S/L858R); experiment: HotSpot radiometric kinase assay, EGFR L858R/C797S; settings: radiometric filter-binding, 10 μM ATP
Chain of EGFR L858R/C797S mutant (P00533 25-1210 C797S/L858R): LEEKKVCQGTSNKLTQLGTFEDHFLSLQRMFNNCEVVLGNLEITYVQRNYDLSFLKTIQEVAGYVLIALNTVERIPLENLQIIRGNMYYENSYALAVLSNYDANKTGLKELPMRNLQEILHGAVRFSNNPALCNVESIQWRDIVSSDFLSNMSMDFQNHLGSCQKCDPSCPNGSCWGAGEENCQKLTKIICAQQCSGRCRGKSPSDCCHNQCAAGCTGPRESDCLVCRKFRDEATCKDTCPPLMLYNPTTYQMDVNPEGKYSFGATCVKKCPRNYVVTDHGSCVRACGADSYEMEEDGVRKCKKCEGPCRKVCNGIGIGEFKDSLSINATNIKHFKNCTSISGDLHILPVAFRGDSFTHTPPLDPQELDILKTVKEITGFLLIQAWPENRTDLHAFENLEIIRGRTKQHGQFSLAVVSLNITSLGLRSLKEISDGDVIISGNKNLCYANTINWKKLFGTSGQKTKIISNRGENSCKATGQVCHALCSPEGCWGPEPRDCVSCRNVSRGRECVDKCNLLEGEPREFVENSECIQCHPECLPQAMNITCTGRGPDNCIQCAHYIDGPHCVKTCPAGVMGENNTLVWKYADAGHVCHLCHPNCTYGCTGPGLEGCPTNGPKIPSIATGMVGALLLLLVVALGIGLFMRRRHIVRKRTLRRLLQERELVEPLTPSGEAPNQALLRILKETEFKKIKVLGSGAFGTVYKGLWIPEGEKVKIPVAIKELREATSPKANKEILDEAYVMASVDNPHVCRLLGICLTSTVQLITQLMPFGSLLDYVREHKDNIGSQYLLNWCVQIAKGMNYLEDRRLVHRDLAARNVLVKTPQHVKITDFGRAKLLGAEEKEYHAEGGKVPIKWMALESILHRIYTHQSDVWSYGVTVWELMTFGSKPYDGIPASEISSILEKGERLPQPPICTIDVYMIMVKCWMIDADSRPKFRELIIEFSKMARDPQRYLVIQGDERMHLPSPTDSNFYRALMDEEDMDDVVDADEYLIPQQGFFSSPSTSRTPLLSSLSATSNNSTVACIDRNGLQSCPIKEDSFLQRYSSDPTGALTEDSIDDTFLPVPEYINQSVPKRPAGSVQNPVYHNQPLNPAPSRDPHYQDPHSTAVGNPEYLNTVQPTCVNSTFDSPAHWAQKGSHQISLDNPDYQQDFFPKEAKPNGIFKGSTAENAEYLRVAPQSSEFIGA

EGFR L858R/T790M mutant = EGFR L858R/T790M mutant (Homo sapiens (Human), UniProt P00533, L858R/T790M); experiment: HotSpot radiometric kinase assay, EGFR L858R/T790M; settings: radiometric filter-binding, 10 μM ATP; read-out: EGFR (L858R/T790M)_IC50
[1] = target: EGFR L858R/T790M/C797S mutant (Homo sapiens (Human), UniProt P00533, C797S/L858R/T790M); experiment: HotSpot radiometric kinase assay, EGFR L858R/T790M/C797S; settings: radiometric filter-binding, 10 μM ATP; read-out: EGFR (L858R/T790M/C797S/)_IC50
Chain of EGFR L858R/T790M/C797S mutant (P00533 25-1210 T790M/C797S/L858R): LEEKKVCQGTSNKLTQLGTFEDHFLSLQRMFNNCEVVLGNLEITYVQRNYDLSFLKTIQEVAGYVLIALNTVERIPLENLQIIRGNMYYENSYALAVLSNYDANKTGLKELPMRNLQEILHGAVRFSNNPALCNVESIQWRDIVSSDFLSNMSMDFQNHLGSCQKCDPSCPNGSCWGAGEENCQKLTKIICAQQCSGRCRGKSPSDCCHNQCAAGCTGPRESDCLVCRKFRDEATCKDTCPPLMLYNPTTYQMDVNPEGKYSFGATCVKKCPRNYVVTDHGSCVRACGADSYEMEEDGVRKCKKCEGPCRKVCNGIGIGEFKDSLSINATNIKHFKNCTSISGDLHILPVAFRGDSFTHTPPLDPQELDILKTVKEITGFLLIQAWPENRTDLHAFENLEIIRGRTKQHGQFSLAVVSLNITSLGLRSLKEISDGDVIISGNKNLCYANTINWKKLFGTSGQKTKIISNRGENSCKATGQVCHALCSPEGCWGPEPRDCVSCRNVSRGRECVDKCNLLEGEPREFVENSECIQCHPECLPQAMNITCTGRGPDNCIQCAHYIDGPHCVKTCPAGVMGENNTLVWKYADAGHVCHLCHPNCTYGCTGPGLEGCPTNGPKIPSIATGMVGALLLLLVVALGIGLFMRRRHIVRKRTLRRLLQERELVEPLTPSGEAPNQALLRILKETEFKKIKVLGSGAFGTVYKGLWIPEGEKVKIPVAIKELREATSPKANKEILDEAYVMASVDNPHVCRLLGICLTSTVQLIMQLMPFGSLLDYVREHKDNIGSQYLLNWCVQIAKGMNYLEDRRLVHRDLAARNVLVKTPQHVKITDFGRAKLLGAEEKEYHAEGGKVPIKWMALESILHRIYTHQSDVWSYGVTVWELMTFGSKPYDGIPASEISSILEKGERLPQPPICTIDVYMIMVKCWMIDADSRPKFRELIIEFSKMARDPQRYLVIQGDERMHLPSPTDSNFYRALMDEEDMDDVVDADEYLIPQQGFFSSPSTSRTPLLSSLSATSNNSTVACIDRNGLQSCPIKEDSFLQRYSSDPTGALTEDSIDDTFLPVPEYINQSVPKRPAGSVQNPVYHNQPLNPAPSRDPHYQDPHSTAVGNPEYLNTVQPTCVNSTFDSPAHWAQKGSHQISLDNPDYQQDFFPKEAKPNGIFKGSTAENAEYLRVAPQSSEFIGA

EGFR (Δ746-750) = EGFR (Δ746-750) (Homo sapiens (Human), UniProt P00533, DEL746-750); experiment: HotSpot radiometric kinase assay, EGFR Δ746-750; settings: radiometric filter-binding, 10 μM ATP
Chain of EGFR (Δ746-750) (P00533 other isoform, or with tags, fused parts or gaps del 1-668/del 746-750 limits assumed): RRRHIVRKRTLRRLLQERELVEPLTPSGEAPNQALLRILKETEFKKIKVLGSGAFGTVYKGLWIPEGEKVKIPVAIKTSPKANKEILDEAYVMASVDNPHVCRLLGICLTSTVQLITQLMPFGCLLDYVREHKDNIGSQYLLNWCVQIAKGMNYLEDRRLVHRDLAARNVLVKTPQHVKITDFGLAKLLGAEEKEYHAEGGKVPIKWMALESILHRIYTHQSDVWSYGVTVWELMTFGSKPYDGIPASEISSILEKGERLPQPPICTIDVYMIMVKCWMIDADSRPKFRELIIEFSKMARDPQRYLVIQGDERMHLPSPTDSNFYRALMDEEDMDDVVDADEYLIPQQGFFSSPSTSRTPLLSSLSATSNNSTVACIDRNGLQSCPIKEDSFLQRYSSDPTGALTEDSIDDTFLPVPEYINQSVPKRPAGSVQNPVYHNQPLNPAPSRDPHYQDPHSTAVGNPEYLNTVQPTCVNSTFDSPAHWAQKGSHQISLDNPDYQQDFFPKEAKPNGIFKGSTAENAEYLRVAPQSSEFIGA

[2] = target: EGFR Δ746-750/C797S mutant (Homo sapiens (Human), UniProt P00533, C797S/DEL746-750); experiment: HotSpot radiometric kinase assay, EGFR Δ746-750/C797S; settings: radiometric filter-binding, 10 μM ATP
Chain of EGFR Δ746-750/C797S mutant (P00533 other isoform, or with tags, fused parts or gaps C797S/del 1-668/del 746-750 limits assumed): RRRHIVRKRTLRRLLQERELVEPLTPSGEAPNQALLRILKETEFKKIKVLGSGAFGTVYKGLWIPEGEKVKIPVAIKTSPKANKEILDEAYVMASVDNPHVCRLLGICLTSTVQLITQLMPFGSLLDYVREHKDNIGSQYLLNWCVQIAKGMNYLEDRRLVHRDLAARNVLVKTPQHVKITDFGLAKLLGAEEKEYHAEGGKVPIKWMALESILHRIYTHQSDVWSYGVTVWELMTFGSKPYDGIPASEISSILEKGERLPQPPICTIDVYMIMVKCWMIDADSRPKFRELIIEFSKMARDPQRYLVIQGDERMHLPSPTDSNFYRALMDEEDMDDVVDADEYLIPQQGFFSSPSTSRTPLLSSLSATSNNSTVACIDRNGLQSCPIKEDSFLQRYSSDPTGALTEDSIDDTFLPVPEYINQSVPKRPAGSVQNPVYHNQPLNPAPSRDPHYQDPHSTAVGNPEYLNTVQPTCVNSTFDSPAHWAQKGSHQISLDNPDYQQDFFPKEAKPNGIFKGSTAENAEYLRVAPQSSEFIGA
Method: (§1) Biochemical Assays for Inhibition of Wild-Type and Mutant EGFRs
(§2) The inhibitory activities against EGFR WT, EGFR Δ752-759 mutant, EGFR Δ746-750/T790M mutant, EGFR Δ746-750/C797S mutant, EGFR Δ746-750/T790M/C797S mutant. […] Briefly, specific kinase/substrate pairs along with required cofactors were prepared in reaction buffer; 20 mM Hepes pH 7.5, 10 mM MgCl2, 1 mM EGTA, 0.02% Brij35, 0.02 mg/ml BSA, 0.1 mM Na3VO4, 2 mM DTT, 1% DMSO. Compounds were delivered into the reaction, followed ˜20 minutes later by addition of a mixture of ATP (Sigma, St. Louis MO) and ^33P ATP (Perkin Elmer, Waltham MA) to a final concentration of 10 μM. Reactions were carried out at room temperature for 120 min, followed by spotting of the reactions onto P81 ion exchange filter paper (Whatman Inc., Piscataway, NJ). Unbound phosphate was removed by extensive washing of filters in 0.75% phosphoric acid. […] IC50 values and curve fits were obtained using Prism (GraphPad Software).

[3] = target: EGFR Δ746-750/T790M mutant (Homo sapiens (Human), UniProt P00533, DEL746-750/T790M); experiment: HotSpot radiometric kinase assay, EGFR Δ746-750/T790M; settings: radiometric filter-binding, 10 μM ATP
Method: as §1, §2

[4] = target: EGFR Δ746-750/T790M/C797S mutant (Homo sapiens (Human), UniProt P00533, C797S/DEL746-750/T790M); experiment: HotSpot radiometric kinase assay, EGFR Δ746-750/T790M/C797S; settings: radiometric filter-binding, 10 μM ATP
Method: as §1, §2

EGFR WT = EGFR WT (Homo sapiens (Human), UniProt P00533); experiment: HotSpot radiometric kinase assay, EGFR WT; settings: radiometric filter-binding, 10 μM ATP
Method: as §1, §2

Chain of EGFR L858R mutant (P00533 25-1210 L858R): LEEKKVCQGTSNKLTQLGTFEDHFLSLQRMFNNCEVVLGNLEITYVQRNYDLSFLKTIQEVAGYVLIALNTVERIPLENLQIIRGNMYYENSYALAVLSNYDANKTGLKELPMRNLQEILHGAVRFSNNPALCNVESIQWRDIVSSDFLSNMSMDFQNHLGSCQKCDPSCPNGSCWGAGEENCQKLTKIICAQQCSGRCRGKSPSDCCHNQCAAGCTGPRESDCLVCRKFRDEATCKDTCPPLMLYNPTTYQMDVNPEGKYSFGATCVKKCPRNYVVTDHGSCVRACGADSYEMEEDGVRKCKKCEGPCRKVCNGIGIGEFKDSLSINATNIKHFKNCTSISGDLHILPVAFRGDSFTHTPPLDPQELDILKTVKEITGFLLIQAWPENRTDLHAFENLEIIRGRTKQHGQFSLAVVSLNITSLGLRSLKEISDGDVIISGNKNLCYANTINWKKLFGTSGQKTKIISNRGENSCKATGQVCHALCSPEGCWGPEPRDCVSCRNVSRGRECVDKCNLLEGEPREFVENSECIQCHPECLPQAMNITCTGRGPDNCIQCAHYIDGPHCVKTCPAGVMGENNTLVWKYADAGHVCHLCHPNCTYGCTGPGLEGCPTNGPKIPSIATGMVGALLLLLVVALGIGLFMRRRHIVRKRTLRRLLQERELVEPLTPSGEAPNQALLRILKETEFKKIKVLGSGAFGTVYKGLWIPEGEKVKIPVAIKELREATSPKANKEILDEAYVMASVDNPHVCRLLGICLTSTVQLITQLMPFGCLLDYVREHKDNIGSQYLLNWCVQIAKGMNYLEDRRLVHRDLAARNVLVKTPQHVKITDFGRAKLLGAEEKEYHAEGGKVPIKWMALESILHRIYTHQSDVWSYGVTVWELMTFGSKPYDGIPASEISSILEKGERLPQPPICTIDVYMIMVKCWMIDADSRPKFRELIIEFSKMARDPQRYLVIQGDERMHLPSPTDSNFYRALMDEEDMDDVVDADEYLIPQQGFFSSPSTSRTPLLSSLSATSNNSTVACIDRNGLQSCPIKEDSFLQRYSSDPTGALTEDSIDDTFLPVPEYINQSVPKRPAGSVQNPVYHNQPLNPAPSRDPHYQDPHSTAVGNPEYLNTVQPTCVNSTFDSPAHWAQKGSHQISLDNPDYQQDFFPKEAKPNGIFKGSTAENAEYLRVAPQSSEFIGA

Cn1ncc2c1OCCCOc1ccccc1/C=C/c1n[nH]c3ccc-2nc13 [Cpd. 2, (18E)-8-methyl-2,8,11,12-tetrahydro-10H-3,5-ethenodipyrazolo[3,4-f:4′,3′-j][1,5,9]benzodioxazacyclopentadecine]
IC50 (EGFR L858R mutant): 258 nM | IC50 (EGFR L858R/C797S mutant): 595 nM | IC50 (EGFR L858R/T790M mutant): 301 nM | IC50 [1]: 692 nM | IC50 (EGFR (Δ746-750)): 49.1 nM | IC50 [2]: 16.2 nM | IC50 [3]: 22.9 nM | IC50 [4]: 29.3 nM | IC50 (EGFR WT): 554 nM
